Assays:
[1] = double-blind, placebo-controlled trial; cited from earlier work
[2] = retinal degeneration slow mouse; cited from earlier work
[3] = tested on: retinal ganglion cells; conditions: adult rats, rasagiline before intravitreal SSP
Procedure: The effect of rasagiline on RGC survival is tested in a rat model of RGC survival.
In this well-established model it is used to induce apoptosis of retinal ganglion cells.
Adult rats are used in all rat experiments.
Rats receive a dose of intravitreal SSP in PBS. Animals are imaged immediately and up to 6 h, after which they are sacrificed for histology.
To examine the effect of rasagiline on the survival of RGCs, one group of rats are treated with rasagiline for a period of time before SSP. A further group of naïve rats receives no rasagiline.
The animal is positioned before the cLSO so that the interior of the eye is imaged. An Argon laser wavelength of 488 nm is focused into a small spot and scanned across the retina by a pair of mirrors to excite the administered annexin 5-bound fluorophore. The fluorescence is detected by a solid-state photodetector.
For imaging, animals are held in a stereotaxic frame and their pupils dilated. Videos of scanned retinal areas are assessed for fluorescence. All animals have baseline images recorded before receiving intravitreal injections of Alexa Fluor 488-labeled annexin-5. […]
Fluorescent retinas are assessed by using a confocal laser scanning microscope.
The number of stained RGC and annexin 5-labeled apoptotic RGCs are counted with microscopy analysis software.

[4] = tested on: retinal ganglion cells; conditions: Wistar rats, 0.5 and 3 mg/kg IP once daily, 6 weeks
Procedure: Male Wistar rats weighing 375-400 gm are treated under procedures approved and monitored by the Animal Care Committee of the Tel-Aviv University School of Medicine and following the procedures outlined in the Association for Research in Vision and Opthalmology Statement for the use of animals in ophthalmic and vision research. Animals are housed with a 14 hour light/10 hour dark cycle with standard chow and water ad libitum.
Glaucoma is induced in one eye of rats by using the translimbal laser photocoagulation model developed by Levkovitch-Verbin. This model can produce elevated IOP and typical glaucomatous optic nerve damage in most treated eyes.
In this model, the outflow channels of the rat eye are treated by argon laser at 532 nm. […] IOP is measured with Tonopen XL under the above anaesthesia in both eyes before and immediately after laser treatment and weekly thereafter. Each time ten measurements are obtained on each eye and the mean value is calculated. […]
The volume of administration is 2 ml/kg. […] (calculated for a rat weighing 400 g). […]
Thirty-two (32) images of ×40 magnification from each retina (both eyes for each rat) are photographed using a fluorescent microscope, and the number of surviving retinal ganglion cells are counted for each eye. The number of RGCs in the experimental eye are compared to the fellow control eye to calculated the RGC loss. […]

[5] = rasagiline alone; cited from earlier work
[6] = tested on: retinal ganglion cells (RGCs); conditions: Lewis rats, subcutaneous injection, single or repeated (treatment and prevention protocols)
[7] = rats
Procedure: Rats were sacrificed 2-3 hours after last administration. According to preliminary experiment, in order to obtain enough substance for MAO and protein analysis, 4 retinas (from 2 rats) were combined into one sample, (3 retina samples for MAO per each dose groups). The 6 brains and 6 livers were analyzed separately.

[8] = tested on: retinal ganglion cells; conditions: rats, rasagiline in the drinking water
Text: Chronic, moderately elevated IOP is produced unilaterally by cautery of three episcleral vessels; the contralateral eye served as the control. To perform the cautery, sutures are placed in the lids to keep the eye open and in the bulbar conjunctiva to manipulate the globe. Three of the four to five major trunks formed by limbal-derived veins are exposed at the equator of the eye by incising the conjunctiva. Each vessel is lifted with a small muscle hook and cauterized by direct application of an ophthalmic, disposable cautery against the muscle hook. Immediate retraction and absence of bleeding of the cauterized ends of the vessels are noted as successful cauterization. After surgery, eyes are treated topically with bacitracin-neomycin-polymyxin for a few days during recovery.
One group is treated with rasagiline, in the drinking water, for a period of time. Another group is not treated with rasagiline, but receives drinking water on the same schedule. Once a month, each animal is anesthetized and IOP is determined bilaterally. The animals are awake within 15 minutes of the IOP measurement. On any given eye, three to five tonometer readings are taken and averaged. […]
Labeled retinal ganglion cells are counted using fluorescence microscopy in 12 fields of the retina.

[9] = tested on: retinal ganglion cells (RGCs); conditions: Long Evans rats, IP 30 minutes before and 2 hours after ischemia, then once daily
Procedure: Thirty (30) male pigmented rats (Long Evans) are obtained and divided evenly into 3 groups, (2 test groups and 1 control group) 10 animals in each group. Retinal ischemia is induced by a 100/200-mmHg hyperpressure saline column applied to the eye through a needle for 60 minutes.
For the control group, the vehicle (saline solution) is administered IP 30 minutes before ischemia and 2 hours after ischemia.
Electroretinographic (ERG) measurements of a- and b-wave implicit times and peak amplitudes under scotopic conditions at maximal intensity are taken at baseline (just before ischemia), and 4-7 days after reperfusion.
Sampling of fixed flatmount retinas and histological processing for annexin-5 labeling or TUNEL labeling.

[10] = patients with glaucomatous optic neuropathy, vs placebo

Q: For `C#CCN(C)[C@H](C)Cc1ccccc1` [Selegiline], which “effectiveness in treating ALS” value [1] is on record?
A: ineffective

Q: With `C[C@]12C=CC(=O)C=C1CC[C@@H]1[C@@H]2[C@@H](O)C[C@@]2(C)[C@H]1CC[C@]2(O)C(=O)CO` [prednisolone] as the compound, how does the “effect on retinal degeneration” value [2] read?
A: unsuccessful

Q: With `C#CCN[C@@H]1CCc2ccccc21` [Rasagiline, R(+)—N-propargyl-1-aminoindan] as the compound, how does the “effect in the SSP model (RGC apoptosis)” value [3] read?
A: positive effect

Q: What about the “effect in the experimental glaucoma model” value [4] of the same compound?
A: positive effect

Q: And the “ganglion survival in the treated group” value [4]?
A: More ganglion survival

Q: What about the “effectiveness in the ALS mouse model” value [5] of the same compound?
A: effective treatment

Q: And the “effect in the IOP model (RGC survival)” value [6]?
A: positive effect

Q: And the “irritation to the eye” value ([7]; preliminary test performed for 2 days, eye drops)?
A: did not cause irritation to the eye

Q: And the “absorption after intraocular administration” value ([7]; eye drops 0.0165-7.9 mg/kg/day, 10 days)?
A: absorbed in all doses

Q: And the “effect in the chronic, moderately elevated IOP model (RGC survival)” value [8]?
A: positive effect

Q: What about the “recovery of the retinal electric activity and/or number of apoptotic RGCs after transient ischemia” value [9] of the same compound?
A: positive effect

Q: And the “atrophy of the optic nerve” value [10]?
A: reduced atrophy

Q: What about the “preservation of the retina and of the structural integrity of the optic nerve” value [10] of the same compound?
A: increased preservation

Q: And the “protection against loss of RGCs” value [10]?
A: increased protection

Q: And the visual field loss [10]?
A: reduced visual field loss

From US20090062400A1 (priority 2007, published 2009)
